Source: patent US20160166604A1, “Thiol-Sensitive Positive Inotropes” (priority 2005, published 2016)

Experiments:
[1] = test system: cAMP; assay: cAMP FRET imaging in neonatal rat cardiomyocytes; format: cell-based; conditions: 1 mM AS, n=23, p=NS
Procedure: Primary cultures of cardiac ventricular myocytes from 1-3 days old Sprague Dawley rats (Charles River Laboratories, Wilmington, Mass.) were prepared as described. Dostal, D. E. et al., Am. J. Physiol., 263, […]-[…] (1992). Cells were transfected with a FRET-based sensor for cAMP (Zaccolo, M. et al., Science, 295, 1711-1715 (2002)) and imaged 48 hrs after transfection. During the experiments, cells were continuously perfused with HEPES buffered Ringer's modified saline (1 mmol/LCaCl2) at room temperature. Cells were imaged on an inverted Olympus IX50 microscope upon excitation at 430 nm. Mongillo, M. et al., Circ. Res., 98, 226-234 (2006). Image analysis was performed by using ImageJ (Rasband, W. S., ImageJ, National Institutes of Health, Bethesda, Md., USA). At each time point, FRET values were measured as the 480 nm/535 nm emission ratio intensity (R) and were normalized to the 480 nm/535 nm value at time 0s (R0). Agents that increase peak Ca^2+ transients coupled to increased sarcomere shortening often do so via a rise in intracellular cAMP and subsequent activation of protein kinase A ([…]. et al., Curr. Med. Chem., 10, 967-981 (2003). To test whether this applied to AS, real-time imaging of cAMP on transfected neonatal rat cardiomyocytes was performed with a cAMP FRET-probe. Zaccolo, M. et al., Science, 295, 1711-1715 (2002). Upon exposure to 1 mM AS, the FRET signal was unchanged (0.3%±0.1%, n=23, p=NS), whereas subsequent application of norepinephrine (10 μM) or phosphodiesterase inhibitor IBMX (100 μM) both increased it by 12% (p<10^-6) (FIG. 2A). Pre-treatment of adult mouse myocytes with the PKA inhibitor […]

[2] = test system: mice cardiomyocytes; assay: Whole Ca2+ transients in isolated mouse myocytes (fluo-4, confocal line scan); format: cell-based
Procedure: Wild type 2-4 month old mice were anesthetized with intraperitoneal pentobarbital sodium (100 mg/kg/ip). Hearts were perfused as previously described. Mongillo, M. et al., Circ. Res., 98, 226-234 (2006). To assess for sarcomere shortening, cells were imaged using field stimulation (Warner instruments) in an inverted fluorescence microscope (Diaphot 200; Nikon, Inc). Sarcomere length was measured by real-time Fourier transform (IonOptix MyoCam, CCCCD100M) and cell twitch amplitude is expressed as a percentage of resting cell length. Twitch kinetics was quantified by measuring the time to peak shortening and the time from peak shortening to 50% relaxation. For whole calcium transient measurements, myocytes were loaded with the Ca^2+ indicator fluo-4/AM (Molecular Probes, 20 μM for 30 min) and Ca^2+ transients were measured under field-stimulation at 0.5 Hz in perfusion solution by confocal laser scanning microscope (LSM510, Carl Zeiss). Digital image analysis used customer-designed programs coded in Interactive Data Language (IDL).
To further explore potential HNO targets, calcium cycling in adult mouse and rat cardiac myocytes was examined. Cells were first exposed to AS for 5-10 min, then washed and loaded with Indo-1 or Fluo-4 for 20 min. Pretreatment with AS was carried out because the drug reacted with the Ca^2+ indicators (both Fluo-4 and Indo-1) and altered their fluorescent properties. In mice, the calcium transient amplitude assessed by confocal line scan imaging increased by ˜40% over baseline with 0.5 mM AS, (n=27, p<0.001) (FIG. 3A-FIG. 3C), time to peak transient was prolonged (FIG. 3D) while the decay time shortened (FIG. 3E). Basal fluorescence (F0) was unchanged by AS pretreatment (FIG. 3F). Similar results were obtained in rat myocytes (using Indo-1) for Ca^2+ transient amplitude (FIG. 3G and FIG. 3H) and decay time (FIG. 3I). The increase in amplitude was not accompanied by an increase in diastolic Ca^2+ level (ratio 405/485=0.239±0.006 (Con) vs. 0.243±0.008 (AS); n.s.; see also FIG. 3A, FIG. 3F and FIG. 3G). Rapid sustained caffeine (10 mM) application abruptly releases all SR Ca^2+ and subsequent [Ca^2+]i decline is mediated mainly via Na/Ca exchange.

[3] = test system: cardiac myocytes from WT and Gαq overexpressing FVB/N mice; assay: Sarcomere shortening in cardiac myocytes from WT and Gαq overexpressing mice; format: cell-based, mouse; conditions: for increase in sarcomere shortening: Gαq myocytes
Procedure: Cardiac myocytes were isolated from WT and Gαq overexpressing 2-6 month old FVB/N mice, suspended in Tyrode's solution (1 mM calcium) and field stimulated at 0.5 Hz at 23° C. Sarcomere shortening (SS) was assessed by real-time image analysis; data are presented at steady-state (10 minutes drug infusion).

[4] = biological target: T1, SERCA2a (Canis lupus familiaris, UniProt O46674); assay: Ca-ATPase partial reactions and Vmax in cardiac SR vesicles from normal and failing dog hearts; format: biochemical; conditions: for stimulation of maximal Ca-ATPase activity compared to control / spontaneous E2P hydrolysis rate: 0.25 mM AS; for stimulation of maximal Ca-ATPase activity compared to control: 2.5 mM oxalate
T1 construct: sealed cardiac sarcoplasmic reticulum (CSR) membrane vesicles isolated from normal (N) and failing (F); from tissue; host or cells: dog heart, normal and tachy-pacing-induced failing (sealed cardiac SR vesicles)
Procedure: The effect of AS on Ca-ATPase partial reactions and Vmax was measured in sealed cardiac sarcoplasmic reticulum (CSR) membrane vesicles isolated from normal (N) and failing (F) (tachy-pacing-induced) dog hearts. […] In the presence of 2.5 mM oxalate (Ca^2+-loading conditions), 0.25 mM AS stimulated maximal Ca-ATPase activity in N and F CSR (4% vs. 9% compared to control). […] This relieves back inhibition of SERCA2a by the Ca^2+ transport gradient, increasing Vmax.

T1 sequence (O46674 whole entry): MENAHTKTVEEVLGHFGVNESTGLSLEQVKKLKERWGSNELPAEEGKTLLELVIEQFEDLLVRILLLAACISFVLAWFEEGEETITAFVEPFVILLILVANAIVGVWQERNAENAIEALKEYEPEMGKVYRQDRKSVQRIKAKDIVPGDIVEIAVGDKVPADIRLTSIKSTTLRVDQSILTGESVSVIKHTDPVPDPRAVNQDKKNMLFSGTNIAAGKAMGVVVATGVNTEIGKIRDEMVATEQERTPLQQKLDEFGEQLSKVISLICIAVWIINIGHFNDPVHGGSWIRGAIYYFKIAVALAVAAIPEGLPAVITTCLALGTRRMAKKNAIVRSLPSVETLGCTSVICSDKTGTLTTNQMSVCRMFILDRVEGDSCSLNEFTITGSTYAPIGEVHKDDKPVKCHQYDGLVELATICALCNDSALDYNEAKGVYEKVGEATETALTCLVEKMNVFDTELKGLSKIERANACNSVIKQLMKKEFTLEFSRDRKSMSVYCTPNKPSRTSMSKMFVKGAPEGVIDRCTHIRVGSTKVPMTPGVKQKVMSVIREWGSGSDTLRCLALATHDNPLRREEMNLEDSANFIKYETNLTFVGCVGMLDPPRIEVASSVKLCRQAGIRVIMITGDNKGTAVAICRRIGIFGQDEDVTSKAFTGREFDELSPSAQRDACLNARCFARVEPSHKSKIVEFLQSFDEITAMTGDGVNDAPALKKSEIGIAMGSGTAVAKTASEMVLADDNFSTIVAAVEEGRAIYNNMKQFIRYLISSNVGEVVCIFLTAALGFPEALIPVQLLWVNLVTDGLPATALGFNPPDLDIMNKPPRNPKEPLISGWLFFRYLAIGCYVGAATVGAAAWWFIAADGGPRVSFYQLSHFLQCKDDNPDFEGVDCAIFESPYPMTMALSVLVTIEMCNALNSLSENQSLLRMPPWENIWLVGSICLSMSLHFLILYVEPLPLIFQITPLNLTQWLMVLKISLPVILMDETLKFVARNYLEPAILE

`[Na+].[Na+].[O-][N+]([O-])=NO` [AS, Angeli's salt] was tested, and the “change of cAMP FRET signal” value [1] was 0.3%±0.1%, the “Ca2+ transient decay time” value ([2]; 0.5 mM AS pretreatment) was “shortened” and the “time to peak Ca2+ transient” value ([2]; 0.5 mM AS pretreatment) was “prolonged”. The “increase of calcium transient amplitude over baseline” value ([2]; 0.5 mM AS pretreatment, n=27) was about 40%, the “basal fluorescence (F0)” value ([2]; AS pretreatment) was “unchanged” and the “Ca2+ transients” value ([2]; AS, isolated murine cardiomyocytes (Example 7)) was “without changes”. For the same molecule, the “positive inotropic effect in Gαq myocytes compared with WT cells” value ([3]; AS infusion) was “not significantly different”, the “increase in sarcomere shortening” value ([3]; AS 250 μM) was 22±11% and the “increase in sarcomere shortening” value ([3]; AS 500 μM) was 40±11%. For the same molecule, the “Vmax stimulation in presence of Ca2+ ionophore A23187” value ([4]; AS with A23187) was “abolished”, the “stimulation of maximal Ca-ATPase activity compared to control” value ([4]; F CSR) was 9% and the “stimulation of maximal Ca-ATPase activity compared to control” value ([4]; N CSR) was 4%. For the same molecule, the Vmax stimulation ([4]; N CSR, AS, without oxalate) was 27%, the “spontaneous E2P hydrolysis rate” value ([4]; failing (F) CSR, without AS 11) was 111 s⁻¹ and the “spontaneous E2P hydrolysis rate” value ([4]; normal (N) CSR, without AS 12) was 76 s⁻¹.
